{
  "source": "patent US20030180723A1",
  "about": "“Cloning of novel gene sequences expressed and repressed during winter dormancy in the apical buds of tea ( Camellia sinensis L. (O.) Kuntze) bush” (priority 2001, published 2003)",
  "test_system": "dormant apical buds of tea bush",
  "test": "Forced break of bud dormancy by GA3 on a winter-dormant tea bush",
  "format": "in vivo, Camellia sinensis L. (O.) Kuntze",
  "conditions": "out of 20 buds; 5 μM in 5% ethanol, applied onto each dormant bud with a paint brush at least 4 times on the same day, December; bud length and perimeter as indicator of growth",
  "procedure": "Above Example 6 identified 4 differentially expressed genes cloned by us. To further correlate these differentially expressed genes with the phenomenon of dormancy, the dormant bush during winter month was forced to break bud dormancy using a plant growth regulator gibberrellic acid (hereinafter referred to GA3). GA3 was dissolved in 5% ethanol to yield a final concetration of 5 μM. The solution was applied onto each dormant bud with the help of a paint brush at least 4 times on the same day during the month of December. Bud length and its perimeter was recorded regularly as an indicator of its growth. […] These were termed as forced ND apical buds. These were collected and stored as mentioned in Example 1 and used for the purpose of RNA isolation to be used in northern analysis.",
  "data": [
    {"compound": "C=C1C[C@]23C[C@@]1(O)CC[C@H]2[C@@]12C=C[C@H](O)[C@@](C)(C(=O)O1)[C@H]2[C@@H]3C(=O)O", "note": "[GA3, gibberrellic acid]", "values": [
      {"measurement": "buds that showed increase in growth (dormancy break)", "value": 10, "unit": "buds"}
    ]}
  ]
}
